Test results: PMC9856672, “SGC-CAMKK2-1: A Chemical Probe for CAMKK2” (Cells, 2023)
Entries after “also recorded” stand apart in the source; their conditions may differ.

What was measured:
CAMKK2 = CAMKK2 (Homo sapiens, UniProt Q96RR4); experiment: CAMKK2 enzyme assay (radiolabeled phosphate transfer from [γ-32P]-ATP to CaMKKtide); type: biochemical; design: purified recombinant CAMKK2 (100 pM) was incubated in assay buffer; conditions: 200 μM ATP, 100 pM CAMKK2
Method: CAMKK2 activity was determined by measuring the transfer of radiolabeled phosphate from [γ-^32P]-ATP to a synthetic peptide substrate (CaMKKtide) as previously described. Briefly, purified recombinant CAMKK2 (100 pM) was incubated in assay buffer (50 mM HEPES [pH 7.4], 1 mM DTT, 0.02% [v/v] Brij-35) containing 200 μM CaMKKtide (Genscript), 100 μM CaCl2, 1 μM CaM (Sigma-Aldrich, Castle Hill, NSW, Australia), 200 μM [γ-^32P]-ATP (Perkin Elmer, Boston, MA, USA), 5 mM MgCl2 (Sigma-Aldrich, Castle Hill, NSW, Australia), and various concentrations of inhibitors (0–1 μM) in a standard 30 μL assay for 10 min at 30 °C. Reactions were terminated by spotting 15 μL onto P81 phosphocellulose paper (GE Lifesciences, Paramatta, NSW, Australia) and washing extensively in 1% phosphoric acid (Sigma-Aldrich, Castle Hill, NSW, Australia). Radioactivity was quantified by liquid scintillation counting.
A series of furo [2,3-b]pyridines were generated with modifications off the core at the 3- and 5-positions. They were profiled in the CAMKK2 enzyme assay we have described and utilized previously. Briefly, the enzyme assay measures the ability of the compound to inhibit the transfer of a radiolabeled phosphate from ATP to a CAMKK2-specific peptide. […] The S10 (1 µM), a calculated score that is reflective of broad kinome selectivity, is 0.002 for the probe molecule.

[1] = test system: p-AMPK(Thr172) in C4-2 cells; experiment: Western blot of p-AMPK(Thr172) in C4-2 prostate cancer cells; type: cell-based; conditions: 24 h treatment; for IC50: C4-2, 24 h, three individual experiments, read-out: IC50 for decrease of p-AMPK(Thr172) normalized to total AMPK
Method: C4-2 cells were plated in 6-well plates in IMEM medium containing 0.5% FBS. After 72 h, the cells were then treated with the compounds for 24 h before the media was aspirated and cells were washed twice in ice-cold PBS. Cells were lysed using RIPA buffer containing phosphatase and protease inhibitor cocktail while rotating for 30 min at 4 °C. In each lane, 30 μg/well of protein lysate was loaded into a 10% SDS-PAGE gel and run for 1 h and 30 min. Gels were then transferred overnight in a TRIS-glycine/methanol transfer buffer onto a PVDF membrane at 4 °C. Membranes were blocked, incubated with primary overnight at 4 °C, washed, incubated with secondary at room temperature for 1 h, washed, and then developed on an Azure Biosystems C-600 imager. Densitometry was performed using ImageJ. Total-AMPK was normalized to GAPDH and then p-AMPK was normalized to normalized total-AMPK. Normalized p-AMPK was used to calculate IC50 in GraphPad Prism 9.5.0. Primary antibodies used were from Cell Signaling (Danvers, MA, USA; Phospho-AMPKα (Thr172) (40H9) Rabbit mAb: Cat#: 2535; AMPKα (D5A2) Rabbit mAb Cat#: 5831), BD Bioscience (Franklin Lakes, NJ, USA; CAMKK2 mouse mAb Cat# 610544), and Sigma (St. Louis, MO, USA; GAPDH rabbit pAb: Cat# G9545). Secondary antibody (Goat Anti-Rabbit IgG (H + L)-HRP Conjugate; Cat#:1706515) was from Bio-Rad Laboratories (Hercules, CA, USA).
In this experiment, IC50 was calculated via quantifying changes in p-AMPK(Thr172) normalized to total AMPK levels.

[2] = test system: p-AMPK(Thr172) in MDA-MB-231 cells; experiment: Immunoblot of p-AMPK(Thr172) in MDA-MB-231 breast cancer cells; type: cell-based; conditions: 24 h
Method: The cells were then washed three times with 2 mL of ice-cold PBS and lysed with 0.15 mL of phospho-RIPA lysis buffer (Tris-Cl pH 7.5, 50 mM; NaCl, 150 mM; NP-40, 1%; sodium deoxycholate, 0.5%; SDS, 0.05%; EDTA, 5 mM; sodium fluoride, 50 mM; sodium pyrophosphate, 15 mM; ß-glycerophosphate, 10 mM; sodium orthovanadate, 1 mM) with protease inhibitor cocktail (Millipore-Sigma, P-8340). Equal amounts of protein per sample/lane were denatured and resolved by SDS-PAGE. Proteins were transferred to Odyssey Nitrocellulose Membranes (LI-COR Biosciences, cat no: 926-31092), and quantitative immunoblotting was performed using the Odyssey infrared immunoblotting detection system (LI-COR Biosciences, Lincoln, NE, USA). Images were captured using the LI-COR Odyssey Classic scanner and processed using LI-COR Image Studio software, version 4.0. Quantification of the bands was done using Image Studio software tools whereby each individual immunoblot band was highlighted to obtain the signal intensity. The signal intensity of the pAMPK band was then divided by that of total AMPK and the data were normalized to the vehicle-only controls for each experiment. Primary antibodies used were anti-phospho AMPKα (Thr172) (Cell Signaling, cat no: 2535, dilution 1:1000); anti-AMPKα (Cell Signaling, cat.no: 2532, dil 1:500), and anti β-actin (Cat no: 3700, Cell signaling, dil 1:10,000). […]

[3] = test system: panel of more than 400 wild-type human kinases; experiment: DiscoverX KINOMEscan broad kinome profiling (panel of more than 400 wild-type human kinases), selectivity score S10; type: binding; conditions: KINOMEscan at 1 μM; number of wild type kinases with % control ≤10 / number tested
Method: Compounds were screened at Eurofins DiscoverX (Freemont, CA) at a single concentration of 1 μM using binding assays as described previously. Briefly, extracts containing DNA-tagged kinases are incubated with immobilized kinase inhibitors and the test compound (at 1 μM). Test compounds that displace the immobilized broad-spectrum inhibitors are detected by quantitative PCR. The results are expressed as the percentage of kinase bound to the bead compared to DMSO control (%control). […] The formula to calculate S10 depicted in Equation (1). (1) S10(1 μM)=number of wild type kinase with % control ≤10/number of wild type kinase tested
A series of furo [2,3-b]pyridines were generated with modifications off the core at the 3- and 5-positions. They were profiled in the CAMKK2 enzyme assay we have described and utilized previously. Briefly, the enzyme assay measures the ability of the compound to inhibit the transfer of a radiolabeled phosphate from ATP to a CAMKK2-specific peptide. […] 5 was then profiled in the DiscoverX KINOMEscan™ assay panel to provide a view of the overall kinome-wide selectivity (Supplemental S2). This assay platform evaluates compound affinity for a panel of more than 400 wild-type human kinases. The S10 (1 µM), a calculated score that is reflective of broad kinome selectivity, is 0.002 for the probe molecule.

FGFR2 = target: T1, FGFR2 (Homo sapiens, UniProt P21802); experiment: KINOMEscan at 1 μM, FGFR2; type: binding; conditions: 1000 nM, read-out: Percent Control
T1 construct: purchased Eurofins DiscoverX KINOMEscan
From the text: Supplement cells-12-00287-s001.zip/File S2. KinomeScan data for the CAMKK2 probe and negative control.xlsx, sheet "SGC-CAMKK2-1N" | column: Percent Control

T1 sequence (P21802 22-821): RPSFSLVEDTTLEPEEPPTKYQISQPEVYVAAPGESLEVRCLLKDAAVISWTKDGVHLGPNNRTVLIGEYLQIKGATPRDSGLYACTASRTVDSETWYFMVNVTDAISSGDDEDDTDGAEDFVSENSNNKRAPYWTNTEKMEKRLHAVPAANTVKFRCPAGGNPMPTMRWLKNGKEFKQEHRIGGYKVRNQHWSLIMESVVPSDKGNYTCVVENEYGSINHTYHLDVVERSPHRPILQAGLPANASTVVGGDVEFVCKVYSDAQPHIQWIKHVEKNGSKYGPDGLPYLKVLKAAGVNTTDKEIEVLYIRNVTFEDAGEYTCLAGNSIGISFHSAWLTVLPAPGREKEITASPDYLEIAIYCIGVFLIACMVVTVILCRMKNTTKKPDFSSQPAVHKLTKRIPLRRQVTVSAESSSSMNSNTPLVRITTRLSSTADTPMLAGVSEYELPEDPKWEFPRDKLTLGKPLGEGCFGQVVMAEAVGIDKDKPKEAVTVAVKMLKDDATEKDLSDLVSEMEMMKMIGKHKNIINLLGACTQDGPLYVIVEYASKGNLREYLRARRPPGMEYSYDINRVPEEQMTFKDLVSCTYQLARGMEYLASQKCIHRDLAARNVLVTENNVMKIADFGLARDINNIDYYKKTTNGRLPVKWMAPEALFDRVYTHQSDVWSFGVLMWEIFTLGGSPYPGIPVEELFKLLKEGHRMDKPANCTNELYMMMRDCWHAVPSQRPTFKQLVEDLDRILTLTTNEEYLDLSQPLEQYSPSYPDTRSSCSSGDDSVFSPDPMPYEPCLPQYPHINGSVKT

SMILES	IC50 (CAMKK2)	IC50 [1]	blocking of AMPK phosphorylation (in words) ([2]; SGC-CAMKK2-1)	S10 (1 μM) [3]	IC50 (CAMKK2; n = 1)	activity on p-AMPK(Thr172) levels (in words) [1]	blocking of AMPK phosphorylation (in words) ([2]; negative control at 10 μM)	remaining binding at 1 µM (FGFR2)
Cc1cccc(-c2cnc3occ(-c4ccc(C(=O)O)c(C5CCCC5)c4)c3c2)c1 [Compound 5]	30 nM	1600 nM	more effective than STO-609; also recorded: higher efficacy than STO-609	0.002				
O=C(O)c1ccc(-c2coc3ncc(-c4ccccc4)cc23)cc1Cl [Compound 7]		≥ 10000 nM		0.005	27000 nM	did not have any measurable activity	no effect	
O=C(O)c1ccc(-c2coc3ncc(-c4ccccc4)cc23)cc1Cl [SGC-CAMKK2-1N (UNC-YL-83)]								84%
